Our source for the IC50 values is patent US20070203066A1, “Compositions and methods for inhibiting cellular proliferation” (priority 2005, published 2007).

Primed or numbered codes have the meaning given here. No end group written: not given here. Ida(3) = iminodiacetic acid linker, Lys side-chain amines bound to its two carboxyl groups

For the assay, the system named is HUVECs. Type of assay: cell-based. Conditions: HUVEC proliferation, bFGF at 10 ng/ml or VEGF at 5 ng/ml, 48 hours, BrdU incorporation; read-out: IC50 on HUVECs. Put shortly:
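Proliferation read-out: BrdU incorporation after 48-hour culture (37 ° C, 5% CO2) with graded peptide doses. Cells were in EBM with 2% FCS at 5,000 per well, driven by VEGF (5 ng/ml) or bFGF (10 ng/ml), added after ≥12-hour attachment.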
A general note: Dividing cells build labelled thymidine or BrdU into new DNA.
Broadly, the IC50 is the concentration needed to halve the response being measured. In the case of “388 (Ac-ARRRRQAVFIYFK-NH2; not fully specified (residue 13); also: homodimer via Ida linker on Lys13 side chain, Ida amine Boc) [compound 388]”, the IC50 was < 10 µM.
For “389 (Ac-ARRRRQAVGIYFK-NH2; not fully specified (residue 13); also: homodimer via Ida linker on Lys13 side chain, Ida amine Boc) [compound 389]” the value was < 10 µM; for “390 (Ac-ARRRRQAVMIYFK; not fully specified (residue 13, C-terminus); also: homodimer of residues 1-13 via Ida linker at Lys13 side chain) [compound 390]”, < 10 µM.
Turning to “391 (Ac-ARRRRQAVNIYFK; not fully specified (residue 13, C-terminus); also: homodimer of residues 1-13 via Ida linker at Lys13 side chain) [compound 391]”, the IC50 is < 10 µM.
In the case of “392 (Ac-ARRRRQAVPIYFK; not fully specified (residue 13, C-terminus); also: homodimer of residues 1-13 via Ida linker at Lys13 side chain) [compound 392]”, the concentration for half-maximal inhibition (IC50) was > 30 µM.
For “393 (Ac-ARRRRQAVQIYFK; not fully specified (residue 13, C-terminus); also: homodimer of residues 1-13 via Ida linker at Lys13 side chain) [compound 393]”, the IC50 is < 10 µM.
With “394 (Ac-ARRRRQAVSIYFK; not fully specified (residue 13, C-terminus); also: homodimer of residues 1-13 via Ida linker at Lys13 side chain) [compound 394]”, the IC50 was < 10 µM.
For the substance “395 (Ac-ARRRRQAVTIYFK; not fully specified (residue 13, C-terminus); also: homodimer of residues 1-13 via Ida linker at Lys13 side chain) [compound 395]”, the IC50 was < 10 µM.
Take “396 (Ac-ARRRRQAVWIYFK; not fully specified (residue 13, C-terminus); also: homodimer of residues 1-13 via Ida linker at Lys13 side chain) [compound 396]”: the concentration for half-maximal inhibition (IC50) was < 10 µM.
On to “397 (Ac-ARRRRQAVYIYFK; not fully specified (residue 13, C-terminus); also: homodimer of residues 1-13 via Ida linker at Lys13 side chain) [compound 397]”, for which the IC50 is < 10 µM.
For “398 (Ac-ARRRRQAVLIYFK; not fully specified (residue 13, C-terminus); also: homodimer of residues 1-13 via Ida linker at Lys13 side chain) [compound 398]” the value was < 10 µM; for “399 (Ac-ARRRRQAVRIYFK; not fully specified (residue 13, C-terminus); also: homotrimer via ATA linker at Lys13 side chain) [compound 399]”, < 10 µM; for “400 (Ac-DRRRRQAVAIYFK; not fully specified (residue 13, C-terminus); also: homodimer of residues 1-13 via Ida linker at Lys13 side chain) [compound 400]”, < 10 µM.
Consider “401 (Ac-ERRRRQAVAIYFK(Ida(3))-NH2; also: homodimer via Ida linker on Lys13 side chain, Ida amine Boc) [compound 401]”, for which the IC50 is < 10 µM.
For the substance “402 (Ac-FRRRRQAVAIYFK(Ida(3))-NH2; also: homodimer via Ida linker on Lys13 side chain, Ida amine Boc) [compound 402]”, the half-maximal inhibitory concentration (IC50) is < 10 µM.
Under “403 (Ac-GRRRRQAVAIYFK(Ida(3))-NH2; also: homodimer via Ida linker on Lys13 side chain, Boc on Ida amine) [compound 403]” stands < 10 µM; under “404 (Ac-IRRRRQAVAIYFK(Ida(3))-NH2; also: homodimer via Ida linker on Lys13 side chain, Boc on Ida amine) [compound 404]”, < 10 µM; under “405 (Ac-LRRRRQAVAIYFK(Ida(3))-NH2; also: homodimer via Ida linker on Lys13 side chain, Boc on Ida amine) [compound 405]”, < 10 µM.
As to “406 (Ac-MRRRRQAVAIYFK; not fully specified (residue 13, C-terminus); also: homodimer via Ida linker on Lys side chains, linker at 13 via Ida, other end not in the chain) [compound 406]”, the IC50 is < 10 µM.
For “407 (Ac-NRRRRQAVAIYFK; not fully specified (residue 13, C-terminus); also: homodimer via Ida linker on Lys side chains, linker at 13 via Ida, other end not in the chain) [compound 407]”, the IC50 is < 10 µM.
For “408 (Ac-PRRRRQAVAIYFK; not fully specified (residue 13, C-terminus); also: homodimer via Ida linker on Lys side chains, linker at 13 via Ida, other end not in the chain) [compound 408]” the value was < 10 µM.
For “409 (Ac-QRRRRQAVAIYFK; not fully specified (residue 13, C-terminus); also: homodimer via Ida linker on Lys side chains, linker at 13 via Ida, other end not in the chain) [compound 409]” the value was < 10 µM; for “410 (Ac-SRRRRQAVAIYFK; not fully specified (residue 13, C-terminus); also: homodimer via Ida linker on Lys side chains, linker at 13 via Ida, other end not in the chain) [compound 410]”, < 10 µM; for “411 (Ac-TRRRRQAVAIYFK; not fully specified (residue 13, C-terminus); also: homodimer via Ida linker on Lys side chains, linker at 13 via Ida, other end not in the chain) [compound 411]”, < 10 µM.
In the case of “412 (Ac-VRRRRQAVAIYFK; not fully specified (residue 13, C-terminus); also: homodimer via Ida linker on Lys side chains, linker at 13 via Ida, other end not in the chain) [compound 412]”, the IC50 was < 10 µM.
For “413 (Ac-WRRRRQAVAIYFK; not fully specified (residue 13, C-terminus); also: homodimer via Ida linker on Lys side chains, linker at 13 via Ida, other end not in the chain) [compound 413]” the value was < 10 µM.
Under “414 (Ac-YRRRRQAVAIYFK; not fully specified (residue 13, C-terminus); also: homodimer via Ida linker on Lys side chains, linker at 13 via Ida, other end not in the chain) [compound 414]” stands < 10 µM.
